The values below come from ChEMBL document CHEMBL1201862, “PubChem BioAssay data set” (2004).

Usually EC50 stands for the concentration at which the effect is half-maximal. What is called IC50 is the midpoint of a concentration-inhibition curve. In general, AC50 refers to the concentration at which the activity in the assay is half-maximal.

Calls of active or inactive are those of the source. Some results are limits rather than exact numbers.

The nature of test [1]: growth suppression of PTEN-null colon cells, dose response, cell-based, HCT116 PTEN knockout (AID 1047).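 Also: HCT116 colon tumor cells with PTEN knocked out; cells exposed to compound for 60 hours before readout; potency for loss of cell viability measured by luminescence.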 Type of test: functional.
Test [2] in a line: growth suppression of beta-catenin-knockout colon cells, dose response, cell-based, HCT116, human colon tumor (AID 1045).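 Also: HCT116 colon tumor cells with beta catenin knocked out; cells exposed to compound for 60 hours.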 Type of test: functional.
Test [3] is described as follows: Artemis endonuclease inhibitor potency, dose response, biochemical, fluorescence intensity (AID 720701).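 Also: Artemis endonuclease enzyme.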 Type of test: functional.
In a further test the target is T1, X-box-binding protein 1 (Homo sapiens, UniProt P17861).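 Also: confirmatory dose-response counter-screen serving a CHOP assay.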
T1 sequence (P17861 whole entry): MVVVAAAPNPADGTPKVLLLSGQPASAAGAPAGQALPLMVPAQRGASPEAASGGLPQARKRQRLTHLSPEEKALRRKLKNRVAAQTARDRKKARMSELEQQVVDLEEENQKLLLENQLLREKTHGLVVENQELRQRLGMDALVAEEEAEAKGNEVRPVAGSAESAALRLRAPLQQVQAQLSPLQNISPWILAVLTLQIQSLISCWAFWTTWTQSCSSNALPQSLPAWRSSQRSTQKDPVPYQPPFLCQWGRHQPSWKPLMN
Type of test: functional, Cricetulus griseus.

The nature of test [4]: Late stage assay provider results from the probe development effort to identify inhibitors of the Plasmodium falciparum M18 Aspartyl Aminopeptidase (M18AAP): radiolabel-based cell-based dose response assay to identify compounds that inhibit P. falciparum growth in RBCs, Set 2.. Type of test: functional.
Test [5] concerns the target T2, Tyrosine-protein phosphatase non-receptor type 7 (Homo sapiens, UniProt P35236).
T2 sequence (P35236 whole entry): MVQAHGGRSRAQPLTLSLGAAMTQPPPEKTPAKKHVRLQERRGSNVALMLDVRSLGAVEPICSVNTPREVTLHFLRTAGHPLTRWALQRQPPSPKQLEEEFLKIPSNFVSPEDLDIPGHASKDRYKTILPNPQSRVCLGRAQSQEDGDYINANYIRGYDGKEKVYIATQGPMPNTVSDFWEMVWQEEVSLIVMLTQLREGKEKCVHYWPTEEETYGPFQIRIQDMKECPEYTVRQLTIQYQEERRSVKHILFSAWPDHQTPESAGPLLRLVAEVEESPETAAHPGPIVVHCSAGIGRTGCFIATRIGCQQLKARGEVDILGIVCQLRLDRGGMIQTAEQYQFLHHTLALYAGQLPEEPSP
In words: inhibitors of human HePTP phosphatase, […], biochemical, absorbance, leukemia target (AID 521). Type of test: functional.

Test [6] is described as follows: P. falciparum Dd2 growth inhibitors, dose response, SYBR Green, dry powder samples (AID 1159566).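 Also: potency for growth inhibition with lower SYBR green DNA signal.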 Type of test: functional, cell-based.
Test [7] in a line: P. falciparum Dd2 growth inhibitors, dose response, SYBR Green, cherry-picked samples (AID 1159567). Type of test: functional, cell-based.
The nature of test [8]: Plasmodium falciparum Dd2 Sybr green parasite growth Measured in Cell-Based and Microorganism Combination System Using Plate Reader - 2153-01_Inhibitor_Dose_DryPowder_Activity_Set3. Type of test: functional.
Test [9] can be described thus: P. falciparum ATP4 D1247Y mutant growth inhibitors, dose response, NITD609-resistant line, SYBR Green, dry powder (AID 1159571).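 Also: parasites synchronized at ring stage by sorbitol before testing.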 Type of test: functional, cell-based.
Test [10] is described as follows: P. falciparum 3D7-ScDHODH growth inhibitors, dose response, SYBR Green, dry powder samples (AID 1159570).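 Also: parasite growth measured after 72 hours of compound exposure.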 Type of test: functional, cell-based.
Test [11] can be described thus: P. falciparum Dd2 growth inhibitors, dose response, SYBR Green, dry powder samples, set 9 (AID 1159568). Type of test: functional, cell-based.
The nature of test [12]: HEK293 cell cytotoxicity, dose response, cytotoxicity control, plate reader, cherry-picked samples (AID 743446). Type of test: functional, cell-based.
Test [13] can be described thus: A549 cell cytotoxicity, dose response, cytotoxicity control, plate reader, cherry-pick, antagonist series (AID 743412). Type of test: functional, cell-based.
A short description of test [14]: cytotoxicity in HEK-293T NF-kB-Luc cells, dose response, cytotoxicity control for B/T-cell NF-kB inhibitor project, cell-based, uHTS hits (AID 489019).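 Also: IC50 reflects cytotoxicity as loss of cell viability.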 Type of test: functional.
The subject of another test is INS1. Put plainly: beta cell apoptosis inhibitors, cytokine rescue, dose response, luminescence, retest (AID 449756).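 Also: cell death triggered by IL-1 beta plus TNF-alpha plus IFN-gamma mixture; protective hits raise ATP signal compared with cytokine alone wells.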 Type of test: functional, cell-based. The following applies: Rattus norvegicus.
The nature of test [15]: control 3'UTR Renilla luciferase suppression, dose response, counter-screen for Shn3 inhibitor project, cell-based, Clone20-Shn3RL, cherry-picked (AID 624133). Type of test: functional. In general terms: Counterscreens check selectivity or assay interference.
The nature of test [16]: Shn3 3'UTR reporter inhibitors, dose response, cell-based, Clone20 osteoblasts, firefly luciferase, cherry-picked (AID 624132).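 Also: firefly luciferase luminescence from reporter carrying the Shn3 3'UTR in osteoblasts.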 Type of test: functional.
Another test concerns Jurkat. In words: antigen receptor-induced NF-kB inhibitors, dose response, Jurkat, luciferase reporter, luminescence, B- and T-cell (AID 489004).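 Also: NF-kB luciferase reporter Jurkat cells stimulated with PMA plus ionomycin.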 To be noted: Homo sapiens. Type of test: functional, cell-based. In general terms: A reporter such as luciferase makes a cellular process visible.
The nature of test [17]: HepG2 cell cytotoxicity, dose response, cytotoxicity control, plate reader, cherry-pick, antagonist series (AID 743416). Type of test: functional, cell-based.
A short description of test [18]: MC4R antagonists, dose response, counter-screen for LGR2 antagonist project, cell-based, plate reader, cherry pick (AID 743444).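 Also: transfected HEK 293 cells stimulated with alpha-MSH peptide; potency of inhibitors of the alpha-MSH evoked signal.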 Type of test: functional.
A short description of test [19]: HepG2 cell cytotoxicity, dose response, cytotoxicity control for Shn3 inhibitor project, CellTiter-Glo, cherry-picked (AID 624134). Type of test: functional, cell-based. For orientation: In ATP-based viability assays light output follows the ATP content of the culture.
Test [20] can be described thus: LGR2 antagonists, dose response, cell-based, HEK293, CRE-luciferase reporter, cherry pick, set 2 (AID 743343).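 Also: transfected cells were stimulated with diluted bursicon conditioned medium after compound addition.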 Type of test: functional.
Test [21] is described as follows: inhibitors of PGC1a acetylation in cells, dose response, cell-based, cherry-picked samples (AID 720514).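 Also: potency may reflect raised or lowered acetylation signal.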 Type of test: functional.
A short description of test [22]: cells. To be noted: HEK293.
In the next test the target is Genome polyprotein (Hepatitis C virus, UniProt Q2Q167). Put plainly: HCV core protein dimerization inhibitors, dose response, biochemical, TR-FRET (AID 2159).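 Also: blocks dimerization of HCV core protein measured by TR-FRET between tagged core106 pairs.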 The arrangement: species or system Hepacivirus hominis.
Chain of Genome polyprotein (Q2Q167 whole entry): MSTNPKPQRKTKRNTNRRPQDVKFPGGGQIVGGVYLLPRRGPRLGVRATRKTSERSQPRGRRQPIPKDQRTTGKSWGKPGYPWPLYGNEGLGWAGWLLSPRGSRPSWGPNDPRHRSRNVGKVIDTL
Test [23] can be described thus: cells. Type of test: functional, cell-based. The following applies: INS-1E.
The nature of test [24]: Dose-response inhibition of insulin secretion in a rat insulinoma line at 5 mM glucose (AID 1117331). Type of test: functional, cell-based. The following applies: INS-1E.

As for `O=C(c1ccc2c3c(cccc13)C(=O)N(O)C2=O)N1CCCCC1`, the results for the EC50 in test [1] and in [2] were 11 µM (active) and 13.7 µM (active), respectively. In addition, the IC50 in test [3] was 11.5 µM (active). Also, the “Absolute IC50 (XBP1)” value at X-box-binding protein 1 was found to be 10 µM.

As to `CN(CCc1ccc(O)c(O)c1)c1ccnc2ccccc12`, in [4], the half-inhibitory concentration (IC50) is 4.8 µM (active).

In the case of `CC(NC(N)=O)C12CC3CC(CC(C3)C1)C2` (stereo not drawn), the IC50 in [5] is recorded as > 100 µM (not active).

In the case of `CO[C@@H]1CN(C)C(=O)c2ccc(NC(=O)Nc3ccccc3F)cc2OC[C@@H](C)N(Cc2ccccc2F)C[C@H]1C`, the concentration at half-maximal activity (AC50) is 0.0449 µM (active) in test [6]; 0.356 µM (active) in test [7]; 0.586 µM (active) in [8]; 0.122 µM (active) in test [9]; 0.948 µM (active) in test [10]; 0.674 µM (active) in test [11].

`C#CC(=O)N(c1cccc(OC)c1)C(C(=O)NC1CCCC1)c1cccs1` (stereo not drawn): the AC50 was 1.65 µM (active) in [12]; 8.46 µM (active) in test [13]; 0.65 µM (active) with INS1; 9.76 µM (active) in test [15]; 3.8 µM (active) in [16]; 0.96 µM (active) in test [17]. For the same molecule, the half-maximal activity concentration (AC50) was 2.25 µM (active) in test [18], 3.76 µM (active) in test [19], 2.53 µM (active) in test [20] and 3.82 µM (active) in test [21]. The IC50 is 28.4 µM (inactive) in [14] and 0.25 µM (active) in the test with Jurkat.

With `Cc1ccc(C(C)C)c(OCCn2/c(=N/C#N)[nH]c3ccccc32)c1`, the AC50 in “cells [22]” is 34 µM (active).

Take `Cc1ccc(OCC(=O)Nc2nnc(S(=O)(=O)N3CCC(C)CC3)s2)cc1`: the half-maximal inhibitory concentration (IC50) at Genome polyprotein is > 49.8 µM (not active).

As to `CCOc1cc(CC(=O)N[C@@H](CC(C)C)c2ccccc2N2CCCCC2)ccc1C(=O)O` [REPAGLINIDE], the figures for the concentration for half-maximal inhibition (IC50) (in the test “cells [23]”; in [24]) were 0.136 µM (active) and 0.027 µM (active), respectively.
